One data set has as its system NCI-H460 cells. Kind of data set: Cell colony formation (clonogenic) assay. Format: cell-based, human. How it is done: For the colony formation assay, cells were treated with indicated concentrations of AGB for 8 h, then AGB was then removed and 200 cells were trypsinized and seeded into a new 12-well cell culture plate containing 1.5 ml of complete cell growth medium. After cells were grown for 14 days, cells were then fixed with ethanol followed a staining by crystal violet (0.05%, w/v, in water) for 15 min. The cell colonies were captured under the microscope and the number of colonies was calculated by ImageJ (version 1.50i, NIH, USA, internet site imagej.nih.gov).

A further data set relates to A549 xenograft. Description: Human tumor xenograft model. Format: in vivo, nude mice. To be noted: AGB 3 mg/kg, tail intravenous injection.
Data set [1] concerns stem-like NCI-H460 xenograft. Description: Cancer stem like xenograft model. The data set is classed as in vivo, NOD/SCID mice. To be noted: AGB 3 mg/kg, tail intravenous injection. How it is done: In vivo anticancer efficacy of AGB was evaluated using the human tumor xenograft model, in which human cancer cells were inoculated into immune-deficiency mice. Briefly, twelve six-week-old (16-18 g) BALB/c nude mice were randomly divided into two groups and both received subcutaneous injection of NCI-H460 cells (2 million cells in 0.1 mL PBS) at its right flank of mice and tumor became palpable after three days of injection. Mice were received intravenous (i.v.) injections of AGB or vehicle control (10% DMSO and 0.05% Tween 80 in normal saline) every two days in two weeks. The length and width of tumor were measured by Vernier caliper and the body weight was monitored every two or three days. At the end of experiment, mice were sacrificed and decapitated. The liver, kidney, and tumor were collected and fixed in 4% formaldehyde for further haematoxylin and eosin (H&E) staining. All animal experiments in this project received human care and study protocols complied with the guidelines of the Laboratory Animal Services Centre of the University of Hong Kong. Tumor sizes and body weight were recorded before the drug injection every time and tumor volume (V) was calculated by the formula V=LW^2/2, where L is tumor length and W is tumor width. […]
The in vivo antitumor potential of AGB using the xenograft mouse model was assessed. […]

Data set [2] can be described thus: Serum biochemical examination in MTD test. The data set is classed as in vivo. To be noted: 12.8 mg/kg. How it is done:
The MTD test in this study was done in collaboration with Tianjin Institute of Pharmaceutical Research (TIPR). […] A total of 80 mice were randomly assigned into four groups (10 male and 10 female mice in each group) in this study. Four groups included 16.0 mg/kg of AGB group, 12.8 mg/kg of AGB group, vehicle control group (10% DMSO+0.8% Tween-80 in normal saline), and the blank control group (normal saline).
Then, the body weights of surviving animals were measured on the 1st, 3rd, 7th and 14th days, respectively. At the end of experiment, the hematology, blood biochemistry, anatomical examination, and histopathology examination were performed in both vehicle control group and the MTD group (12.8 mg/kg). The data were presented as the mean±standard deviation.

Data set [3] concerns U2OS cells transfected with mitochondrial-RFP reporter gene. Kind of data set: Time-lapse microscopy of mitochondrial morphology. The data set is classed as cell-based, human. Conditions: 30 hour, 4 μM AGB treatment. The procedure: Another cluster highlighted in the ProTargetMiner analysis was related to mitochondrial translation and respiration function. Time-lapse microscopy was used to monitor the changes of mitochondrial morphology during a 30 hour, 4 μM AGB treatment using U2OS cells transfected with mitochondrial-RFP reporter gene (data not shown). AGB indeed triggers dynamic changes of mitochondria. As shown in the movie recorded using time-lapse microscopy (data not shown), about 5 hours after the start of the imaging, mitochondria changed to a thread-like, very elongated morphology. Then the threads slowly broke up. At about 10 h, the mitochondria became small dots and these dots got brighter. At the end of the movie (about 30 h treatment), some cells underwent mitochondrial outer membrane permeabilization (the abrupt loss of fluorescence in mitochondria) and died.

For another data set, the system named is Hsp60 client Mito-RFP. Description: Mito-RFP / EGFP fluorescence in transfected cells. Format: cell-based.
The target of a further data set is T1, CS (Homo sapiens, UniProt O75390).
T1 sequence (O75390 28-466): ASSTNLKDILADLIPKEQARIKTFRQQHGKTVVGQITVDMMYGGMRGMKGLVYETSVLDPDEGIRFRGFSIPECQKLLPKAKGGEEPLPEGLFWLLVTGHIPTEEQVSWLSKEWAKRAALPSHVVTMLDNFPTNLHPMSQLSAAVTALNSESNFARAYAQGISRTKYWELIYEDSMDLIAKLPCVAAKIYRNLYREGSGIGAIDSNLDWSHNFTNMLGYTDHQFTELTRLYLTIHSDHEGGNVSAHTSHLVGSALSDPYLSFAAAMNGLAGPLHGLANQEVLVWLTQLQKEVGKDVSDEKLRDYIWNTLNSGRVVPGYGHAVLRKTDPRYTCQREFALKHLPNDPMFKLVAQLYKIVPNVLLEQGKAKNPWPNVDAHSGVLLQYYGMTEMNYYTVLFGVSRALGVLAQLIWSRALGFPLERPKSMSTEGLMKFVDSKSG
Kind of data set: CS catalytic activity. The data set is classed as biochemical. Conditions: dose-dependent. An excerpt: CS is localized within the mitochondrial matrix and is the key enzyme in the first step of the tricarboxylic acid (TCA) cycle that catalyzes the reaction between acetyl coenzyme A (acetyl CoA) and oxaloacetic acid to form citric acid. […] CS is responsible for the production of citrate in the TCA cycle that mediates mitochondrial aerobic respiration to affect the production of ATP production. Targeting at CS may be feasible to restore the abnormal expression of TCA cycle.

The structures appear in SMILES notation.

Turning to `CCCC(=O)c1c(O)c(Cc2c(O)c(Cc3c(O)c(C)c(OC)c(C(=O)CCC)c3O)c(O)c(C(=O)[C@@H](C)CC)c2O)c(O)c(C)c1OC` [AGB, Agrimol B], the “AGB concentration over which colonies numbers were significantly reduced” value in the data set on NCI-H460 cells (8 h treatment, colonies counted after two weeks) was “over 2.5 μM”. Further, the “concentration giving significant reduction of cell colony formation” value in the data set on NCI-H460 cells (clonogenicity assay) is “around 4 μM”. Further, the “tumor growth inhibition rate” value in the data set with A549 xenograft was determined as 60%. In addition, the “tumor growth inhibition rate” value in data set [1] is on record as 64%. Besides, the “serum biochemical abnormalities vs vehicle control” value in data set [2] (14 days after administration) is “no obvious abnormalities”. In data set [2] (day 14), this compound showed an ALB of 17.73 ± 5.07 g/L, an ALP of 153.67 ± 37.63 U/L, an ALT of 26.09 ± 2.23 U/L and an AST of 85.74 ± 15.96 U/L. In data set [2] (day 14), the BUN came to 4.58 ± 2.24 mmol/L, the CK is listed as 953.09 ± 480.50 U/L, the CREA is 34.11 ± 3.61 µmol/L and the GGT worked out at 0.07 ± 0.08 U/L. In data set [2] (day 14), this compound returned a GLU of 9.10 ± 3.07 mmol/L, an LDH of 403.54 ± 92.68 U/L, a T.BIL of 1.75 ± 0.45 µmol/L and a T.CHO of 3.68 ± 1.60 mmol/L. For the same compound, in data set [2] (day 14), the TG was determined as 1.41 ± 0.59 mmol/L and the TP is recorded as 45.93 ± 13.71 g/L. Besides, the mitochondrial morphology entry in data set [3] was “cells underwent a mitochondrial fission”. The EGFP fluorescence result in the data set with Hsp60 client Mito-RFP (cells transfected with EGFP-expressing construct) is on record as “did not show changes in fluorescence”. The “mitochondrial fluorescence (Mito-RFP) vs vehicle” value in the data set with Hsp60 client Mito-RFP (cells transfected with Mito-RFP) is listed as “significant reduction of mitochondrial fluorescence”. Moreover, the “AGB concentration at which a significant decrease in the enzyme activity was observed” value on CS amounted to 5 µM.

The values above are taken from US20250162973A1, “METHODS OF SYNTHESIS AND USES OF AGRIMOL COMPOUNDS” (Versitech Limited, priority 2022, published 2025).
